Test results: US20230097700A1, “AZETIDINE SULFONAMIDE COMPOUND” (DAIICHI SANKYO COMPANY, LIMITED, priority 2019, published 2023)
Structures can show the parent of a compound that is named as a salt.

Key:
[1] = test system: ConA induced mouse cytokine production model; experiment: ConA induced mouse cytokine production model, IFN-γ in the plasma; format: in vivo, mouse (Balb/c); details: one hour before second ConA treatment
Protocol: In this test, mice were treated with concanavalin A (ConA) to activate lymphocytes and the medicinal effect of a test substance was evaluated based on the production of IFN-γ. A system in which cytokine production based on expression of LAT1 is induced, by treating mice with ConA twice at optimal timing, was established. To female Balb/c mice of 7 weeks old, a ConA solution (0.4 mg/mL, Concanavalin A, WAKO, 037-08774) prepared with PBS (D-PBS (−), WAKO, 049-29793) was administered (4 mg/kg, twice at an interval of 16 hours) through the tail vein. Four hours later, under anesthesia by isoflurane inhalation, blood was taken from the posterior vena cava of each of the mice. The blood was centrifuged to collect the plasma. The concentration of IFN-γ in the in plasma was measured by AlphaLISA immunoassay kit (Mouse Interferon-gamma (mIFN-γ) Kit, PerkinElmer, AL501C). Test substance was dissolved in 0.5% MC or mushed in an agate mortar, suspended in 0.5% MC to prepare a solution to be administered (1 or 3 mg/mL) and orally administered one hour before the second treatment with ConA so as to be 10 mL/kg (10 or 30 mg/kg. To Vehicle group, 0.5% MC was administered similarly so as to be 10 mL/kg). Test substances were evaluated. Suppression rates (%) were calculated in accordance with the following expression. Suppression rate (%)=100−[(average value of test substance administration group−average value of Normal group)/(average value of Vehicle group−average value of Normal group)×100] Whether the data of two groups, Normal group and Vehicle group, differ or not was determined by Student's or Welch's t test. Whether the data of Vehicle group and a test substance administration group are different or not was analyzed by parametric multiple comparison test, Dunnett test. The compounds (test substances) suppressed IFN-γ production in a dose-dependent manner.

[2] = test system: activated T cells (CD4+ T cells derived from the mouse spleen); experiment: Incorporation of 3H-thymidine into activated T cells; format: cell-based, mouse (C57BL/6J); details: 3H-thymidine incorporation, mouse spleen CD4+ T cells activated with Dynabeads Mouse T-Activator CD3/CD28
Protocol: Effect of a test substance on incorporation of ^3H-thymidine was evaluated using T cells derived from the mouse spleen. The spleen was excised out from a C57BL/6J mouse euthanized, cut into pieces, ground on a cell strainer (40 μm mesh) and centrifuged to collect spleen cells. CD4+ T cells were isolated from the spleen cells by use of EasySep Mouse CD4+ T cell isolation kit (STEMCELL Technologies). CD4+ T cells were seeded to a 96-well round-bottom plate. Test substance dissolved in DMSO (dimethyl sulfoxide) or vehicle (DMSO) was added to culture medium and Dynabeads Mouse T-Activator CD3/CD28 (Thermo Fisher Scientific Inc.) was added. Culture was carried out at 37° C. in 5% CO2. After culture was carried out for 24 hours, ^3H-thymidine (PerkinElmer) diluted with the culture medium was added to individual wells. Culture was further carried out overnight at 37° C. in 5% CO2. In order to measure ^3H-thymidine incorporated in nuclei of the cells, the cells were collected on a filter plate UniFilter-96 GF/B (PerkinElmer) by use of a FilterMate Universal Harvester (PerkinElmer). After the filter plate was placed in a dryer and allowed to stand still for 2 hours or more, scintillation cocktail MicroScint-O (PerkinElmer) was added and radioactivity was measured by TopCount NXT (PerkinElmer). With the radioactivity of a group not containing a test substance being specified as 100% and the radioactivity of a group not activated being specified as 0%, relative radioactivity values of individual wells to which the test substance was added (proliferation rate, % of vehicle) were calculated. The values of “% of vehicle” were entered in analysis software Prism (Version 4.03, GraphPad Software). “Nonlinear regression Log (inhibitor) vs reaction variable tilt” was selected and sigmoid type-fitting (Bottom=0, Top=100) was carried out to calculate 50% inhibition concentration (IC50). The compound of the present invention suppresses ^3H-thymidine incorporation in activated T cells.

[3] = test system: IFN-α production in mouse spleen cells; experiment: IFN-α production in mouse spleen cells stimulated with TLR9 ligand CpG-ODN D35; format: cell-based, mouse (C57BL/6J)
Protocol: The concentration of test substance added is 1 nM to 300 nM. The graph represents a curve showing response to concentration of a test substance, with the IFN-α production of a group not containing a test substance being specified as 100% and the IFN-α production of a group not stimulated being specified as 0%.
IFN-α production by stimulation with TLR9 ligand CpG-ODN D35 activating pDC was evaluated. Spleen cells were prepared from a C57BL/6J mouse euthanized in the same manner as in Test Example 1 and seeded to a 96-well round-bottom plate. Test substance dissolved in DMSO or vehicle (DMSO) was added to culture medium. After pre-incubation was carried out for 30 minutes, CpG-ODN […] (final concentration 1 μM) was added. Culture was carried out at 37° C. in 5% CO2. After culture was carried out for 24 hours, the culture supernatant was recovered. The concentration of IFN-α in the supernatant was measured by ELISA kit (Mouse IFN-alpha Platinum ELISA Kit, eBioscience). With the IFN-α production of a group not containing a test substance being specified as 100% and the IFN-α production of a group not activated being specified as 0%, relative values of IFN-α production of individual wells (IFN-α production rate, % of vehicle) were calculated. The values of “% of vehicle” of IFN-α production were entered in analysis software Prism (Version 5.0, GraphPad Software). […]

Row | Structure (SMILES) | Percent suppression (%) ([1]; 10 mg/kg oral) | Percent suppression (%) ([1]; 30 mg/kg oral) | IC50 [2] | IC50 ([3]; CpG-ODN stimulation 1 μM, 24 hours, ELISA) | suppressive action on IFN-α production ([3]; test substance 1 nM to 300 nM)
1 | CC(C)C(OC(=O)[C@@H](N)Cc1cccc(S(=O)(=O)N2CC(Oc3ccc(F)cc3)(c3ccc(F)cn3)C2)c1)C(=O)N(C)C.Cl.Cl (stereo partly drawn) [Example 69, 1-(Dimethylamino)-3-methyl-1-oxobutan-2-yl (2S)-2-amino-3-(3-{[3-(4-fluorophenoxy)-3-(5-fluoropyridin-2-yl)azetidin-1-yl]sulfonyl}phenyl)propanoate dihydrochloride] | 33% | 44% | – | – | –
2 | CC(OC(=O)[C@@H](N)Cc1cccc(S(=O)(=O)N2CC(Oc3ccc(F)cc3)(c3ccc(F)cn3)C2)c1)C(=O)N(C)C.Cl.Cl (stereo partly drawn) [Example 62, 1-(Dimethylamino)-1-oxopurpan-2-yl (2S)-2-amino-3-(3-{[3-(4-fluorophenoxy)-3-(5-fluoropyridin-2-yl)azetidin-1-yl]sulfonyl}phenyl)propanoate dihydrochloride] | 43% | 54% | – | – | –
3 | CC(C)C(OC(=O)[C@@H](N)Cc1cccc(S(=O)(=O)N2CC(Oc3ccccc3)(c3ccccc3)C2)c1)C(=O)N(C)C.Cl (stereo partly drawn) [Example 91, 1-(Dimethylamino)-3-methyl-1-oxobutan-2-yl (2S)-2-amino-3-[3-(3-phenoxy-3-phenylazetidin-1-sulfonyl)phenyl]propanoate monohydrochloride] | 55% | 53% | – | – | –
4 | N[C@@H](Cc1cccc(S(=O)(=O)N2CC(Oc3cccc(F)c3)(c3ccccc3)C2)c1)C(=O)O [Example 1, (2S)-2-Amino-3-(3-{[3-(3-fluorophenoxy)-3-phenylazetidin-1-yl]sulfonyl)phenyl)propanoic acid] | – | – | 20 nM | 13 nM | concentration-dependent suppressive action
5 | CC(C)C(OC(=O)[C@@H](N)Cc1cccc(S(=O)(=O)N2CC(Oc3ccccc3)(c3ccc(F)cc3)C2)c1)C(=O)N(C)C.Cl (stereo partly drawn) [Example 93, 1-(Dimethylamino)-3-methyl-1-oxobutan-2-yl (2S)-2-amino-3-(3-{[3-(4-fluorophenyl)-3-phenoxyazetidin-1-yl]sulfonyl}phenyl)propanoate monohydrochloride] | 46% | 34% | – | – | –
6 | Cl.[2H]c1c([2H])c([2H])c(OC2(c3ccccc3)CN(S(=O)(=O)c3cccc(C[C@H](N)C(=O)OC(C(=O)N(C)C)C(C)C)c3)C2)c([2H])c1[2H] (stereo partly drawn) [Example 25, 1-(Dimethylamino)-3-methyl-1-oxobutan-2-yl (2S)-2-amino-3-(3-{3-phenyl-3-[(^2H5)phenyloxy]azetidin-1-sulfonyl}phenyl)propanoate monohydrochloride] | 31% | 51% | – | – | –
7 | Cl.[2H]c1c([2H])c([2H])c(OC2(c3ccc(F)cc3)CN(S(=O)(=O)c3cccc(C[C@H](N)C(=O)OC(C(=O)N(C)C)C(C)C)c3)C2)c([2H])c1[2H] (stereo partly drawn) [Example 27, 1-(Dimethylamino)-3-methyl-1-oxobutan-2-yl (2S)-2-amino-3-(3-{3-(4-fluorophenyl)-3-[(^2H5)phenyloxy]azetidin-1-sulfonyl}phenyl)propanoate monohydrochloride] | 47% | 58% | – | – | –
8 | N[C@@H](Cc1cccc(S(=O)(=O)N2CC(Oc3cccc(F)c3)(c3ccc(Cl)cc3)C2)c1)C(=O)O [Example 55, (2S)-2-Amino-3-(3-{[3-(4-chlorophenyl)-3-(3-fluorophenoxy)azetidin-1-yl]sulfonyl}phenyl)propanoic acid monoformate] | – | – | 7.8 nM | – | –
9 | NC(=O)c1ccc(OC2(c3ccc(F)cc3)CN(S(=O)(=O)c3cccc(C[C@H](N)C(=O)O)c3)C2)cn1 [Example 86a, dihydrochloride] | – | – | 23 nM | – | –
